According to patent US4818770A, “Prevention of a plant disease by specific inhibition of fungal polyamine biosynthesis” (priority 1986, dated 1989):
Where “and” joins values, the source holds several entries; their conditions need not be identical. Identical values can stand only once. Entries after “also recorded” stand apart in the source; their conditions may differ. Like-named read-outs stand apart in the source and are kept apart here.

Assays:
[1] = system: P. graminis f. sp. tritici; assay type: in vivo, Puccinia graminis f. sp. tritici
[2] = system: Verticillium dahliae; test: Verticillium wilt symptoms in Bonny Best tomato after foliar spray; assay type: in vivo
[3] = system: Botrytis sp., B. cinerea, Rhizoctonia solani, Monilinia fructicola; settings: Botrytis sp., B. cinerea, Rhizoctonia solani, Monilinia fructicola; cited from earlier work
[4] = system: bean rust uredospores; test: Germination and differentiation of bean rust uredospores in agar; assay type: cell-based, Uromyces phaseoli; settings: for inhibition at 100 µM / inhibition at 500 µM / inhibition at 1000 µM / inhibition at 5000 µM: Uromyces phaseoli
[5] = system: Verticillium dahliae; test: Radial mycelial growth of Verticillium dahliae in vitro; assay type: cell-based; settings: for minimal effective concentration: Verticillium dahliae, in vitro
[6] = system: Erysiphe polygoni; test: Infection by bean powdery mildew; assay type: in vivo
[7] = system: Puccinia graminis fsp avenae; assay type: in vivo
[8] = system: Erysiphe graminis; test: Wheat powdery mildew infection, colonies per plant
Protocol: With wheat powdery mildew (E. graminis) 10-day-old seedlings were sprayed with solutions of DFMA or DFMO from 0.01 to 5.0 mM before and after inoculation of the plants with conidia. Inoculation occurred naturally in the greenhouse by distributing infected plants among the experimental plants for 24 hours. Infection was evaluated 10 days after inoculation by counting mildew colonies.

[9] = system: Uromyces phaseoli; test: Bean rust lesions on unifoliolate leaves of Pinto bean sprayed before or after inoculation; assay type: in vivo
[10] = system: Podosphaera leucotricha; test: Infection of apple by powdery mildew; assay type: in vivo; settings: 5 mM
[11] = system: PA titers of bean leaves; test: Polyamine titers in leaves of sprayed bean plants; assay type: in vivo, Phaseolus vulgaris
Protocol: PA analysis was performed on leaf samples collected from inhibitor-sprayed bean plants. Leaf samples were ground in prechilled mortars with 10% (w/v) HClO4 at a ratio of 200 mg fresh weight leaf per ml HClO4. Homogenates were centrifuged at 26,00 g for 20 minutes at 4° C. The clear supernatant fractions were used for dansylation according to a procedure previously described. Briefly, 0.4 ml of freshly prepared dansyl (Diaminonaphthylsulfonyl)-C1 (Sigma), 5 mg/ml in acetone, and 0.2 ml of saturated Na2 CO3 were added to 0.2 ml of the supernatant fraction. The dansylated PA were extracted with 0.25 ml benzene and the clear benzene layer was used for PA determinations by TLC on LK6D high resolution silica gel plates (Whatman). After development in chloroform:triethylamine (25:2 v/v) for about 1 hour and location by fluorescence under a UV lamp, the dansylpolyamine bands were scraped off, eluted in 4 ml of ethyl acetate and quantified with an Aminco-Bowman fluorimeter.
The effect of DFMO and DFMA sprays (0.01, 0.1, and 1.0 mM) on PA titers was also examined. Unifoliolate leaves were sprayed in the usual way and examined 1 and 3 days later, while the first trifolioloate leaves, unexpanded ata the time of spray and themselves unsprayed, were examined 8 days later.

[12] = system: Colletotrichum lagenarium; test: Infection of National Pickling cucumber plants by cucumber anthracnose
[13] = system: Puccinia sorghi; test: Infection by corn rust; assay type: in vivo
[14] = postinoculation exposure, inhibitor 0.01 mM
[15] = postinoculation exposure, inhibitor 0.025 mM
[16] = postinoculation exposure, inhibitor 0.05 mM
[17] = postinoculation exposure, inhibitor 0.075 mM
[18] = postinoculation exposure, inhibitor 0.10 mM
[19] = postinoculation exposure, inhibitor 0.25 mM
[20] = postinoculation exposure, inhibitor 0.50 mM
[21] = postinoculation exposure, inhibitor 1.0 mM
[22] = postinoculation exposure, inhibitor 5.0 mM
[23] = preinoculation exposure, inhibitor 0.01 mM
[24] = preinoculation exposure, inhibitor 0.025 mM
[25] = preinoculation exposure, inhibitor 0.05 mM
[26] = preinoculation exposure, inhibitor 0.075 mM
[27] = preinoculation exposure, inhibitor 0.10 mM
[28] = preinoculation exposure, inhibitor 0.25 mM
[29] = preinoculation exposure, inhibitor 0.50 mM
[30] = preinoculation exposure, inhibitor 1.0 mM
[31] = preinoculation exposure, inhibitor 5.0 mM

NCCCC(N)(C(=O)O)C(F)F (racemic) [DFMO, DL-alpha-difluorimethylornithine]
% control ([1]; post-inoculation, 0.01 mM): 36% | Uredia/plant ([1]; post-inoculation, 0.01 mM): 134 Uredia/plant | % control ([1]; post-inoculation, 0.025 mM): 44% | Uredia/plant ([1]; post-inoculation, 0.025 mM): 117 Uredia/plant | % control ([1]; post-inoculation, 0.065 mM): 55% | Uredia/plant ([1]; post-inoculation, 0.065 mM): 94 Uredia/plant | % control ([1]; post-inoculation, 0.10 mM): 76% | Uredia/plant ([1]; post-inoculation, 0.10 mM): 51 Uredia/plant | % control ([1]; post-inoculation, 0.13 mM): 77% | Uredia/plant ([1]; post-inoculation, 0.13 mM): 49 Uredia/plant | % control ([1]; post-inoculation, 0.16 mM): 81% | Uredia/plant ([1]; post-inoculation, 0.16 mM): 40 Uredia/plant | % control ([1]; post-inoculation, 0.20 mM): 82% | Uredia/plant ([1]; post-inoculation, 0.20 mM): 37 Uredia/plant | % control ([1]; post-inoculation, 1.00 mM): 92% | Uredia/plant ([1]; post-inoculation, 1.00 mM): 17 Uredia/plant | ED50, wheat stem rust ([1]; pre-inoculation treatment): 560 µM | % control ([1]; pre-inoculation, 0.01 mM): 8% | Uredia/plant ([1]; pre-inoculation, 0.01 mM): 194 Uredia/plant | % control ([1]; pre-inoculation, 0.025 mM): 17% | Uredia/plant ([1]; pre-inoculation, 0.025 mM): 175 Uredia/plant | % control ([1]; pre-inoculation, 0.065 mM): 13% | Uredia/plant ([1]; pre-inoculation, 0.065 mM): 182 Uredia/plant | % control ([1]; pre-inoculation, 0.10 mM): 13% | Uredia/plant ([1]; pre-inoculation, 0.10 mM): 183 Uredia/plant | % control ([1]; pre-inoculation, 0.13 mM): 19% | Uredia/plant ([1]; pre-inoculation, 0.13 mM): 170 Uredia/plant | % control ([1]; pre-inoculation, 0.16 mM): 32% | Uredia/plant ([1]; pre-inoculation, 0.16 mM): 143 Uredia/plant | % control ([1]; pre-inoculation, 0.20 mM): 32% | Uredia/plant ([1]; pre-inoculation, 0.20 mM): 143 Uredia/plant | % control ([1]; pre-inoculation, 1.00 mM): 57% | Uredia/plant ([1]; pre-inoculation, 1.00 mM): 91 Uredia/plant | symptoms of Verticillium wilt compared to controls ([2]; 2.5 mM and 10 mM, 24 hours after inoculation): suppressed symptoms | most effective time for application ([2]; 5 mM DFMO, symptoms 21 days after inoculation): 24-48 hours post-inoculation | delay of onset of symptom expression ([2]; increasing concentration from 2.5 to 10 mM): up to 7 days | wilt symptoms ([2]; spores applied to the soil, DFMO applied to the leaves): greatly suppressed | mycelial growth in vitro [3]: inhibited mycelial growth | Differentiation % ([4]; 0.1 mM): 46% | Germination % ([4]; 0.1 mM): 32% | Differentiation % ([4]; 0.5 mM): 35% | Germination % ([4]; 0.5 mM): 32% | Differentiation % ([4]; 1.0 mM): 30% | Germination % ([4]; 1.0 mM): 32% | Differentiation % ([4]; 5.0 mM): 19% | Germination % ([4]; 5.0 mM): 22% | inhibition at 100 µM ([4]; 0.1 mM, read-out: Differentiation % Inhibiton): 22% | inhibition at 100 µM ([4]; 0.1 mM, read-out: Germination % Inhibition): 24% | inhibition at 500 µM ([4]; 0.5 mM, read-out: Differentiation % Inhibiton): 41% | inhibition at 500 µM ([4]; 0.5 mM, read-out: Germination % Inhibition): 24% | inhibition at 1000 µM ([4]; 1.0 mM, read-out: Differentiation % Inhibiton): 49% | inhibition at 1000 µM ([4]; 1.0 mM, read-out: Germination % Inhibition): 24% | inhibition at 5000 µM ([4]; 5.0 mM, read-out: Differentiation % Inhibiton): 68% | inhibition at 5000 µM ([4]; 5.0 mM, read-out: Germination % Inhibition): 48% | minimal effective concentration ([5]; 192 h, 8 days, read-out: concentration reducing radial (mycelial) growth): ≥ 5 µM | minimal effective concentration ([5]; read-out: concentration inhibiting pigment synthesis): ≥ 500 µM | effect of 1 mM putrescine on DFMO-induced growth inhibition ([5]; putrescine added to culture medium): reversed | Percent control ([6]; 5 mM): 45% | Percent control ([6]; 10 mM): 52% and ~50% | Percent control ([7]; 0.01 mM): 50.7% and 50% | Percent control ([7]; 0.025 mM): 63.2% | Percent control ([7]; 0.065 mM): 65.5% | Percent control ([7]; 0.10 mM): 71.0% | Percent control ([7]; 0.13 mM): 67.9% | Percent control ([7]; 0.16 mM): 77.3% | % control ([8]; post-inoculation, 0.01 mM): 19% | Colonies/plant ([8]; post-inoculation, 0.01 mM): 30 Colonies/plant | % control ([8]; post-inoculation, 0.025 mM): 30% | Colonies/plant ([8]; post-inoculation, 0.025 mM): 26 Colonies/plant | % control ([8]; post-inoculation, 0.065 mM): 46% | Colonies/plant ([8]; post-inoculation, 0.065 mM): 20 Colonies/plant | % control ([8]; post-inoculation, 0.10 mM): 68% | Colonies/plant ([8]; post-inoculation, 0.10 mM): 12 Colonies/plant | % control ([8]; post-inoculation, 0.20 mM): 68% | Colonies/plant ([8]; post-inoculation, 0.20 mM): 12 Colonies/plant | % control ([8]; post-inoculation, 1.00 mM): 76% | Colonies/plant ([8]; post-inoculation, 1.00 mM): 9 Colonies/plant | % control ([8]; post-inoculation, 5.00 mM): 89% | Colonies/plant ([8]; post-inoculation, 5.00 mM): 4 Colonies/plant | % control ([8]; pre-inoculation, 0.01 mM): 41% | Colonies/plant ([8]; pre-inoculation, 0.01 mM): 22 Colonies/plant | % control ([8]; pre-inoculation, 0.025 mM): 35% | Colonies/plant ([8]; pre-inoculation, 0.025 mM): 24 Colonies/plant | % control ([8]; pre-inoculation, 0.065 mM): 46% | Colonies/plant ([8]; pre-inoculation, 0.065 mM): 20 Colonies/plant | % control ([8]; pre-inoculation, 0.10 mM): 51% | Colonies/plant ([8]; pre-inoculation, 0.10 mM): 18 Colonies/plant | % control ([8]; pre-inoculation, 0.20 mM): 46% | Colonies/plant ([8]; pre-inoculation, 0.20 mM): 20 Colonies/plant | % control ([8]; pre-inoculation, 1.00 mM): 66% | Colonies/plant ([8]; pre-inoculation, 1.00 mM): 13 Colonies/plant | % control ([8]; pre-inoculation, 5.00 mM): 95% | Colonies/plant ([8]; pre-inoculation, 5.00 mM): 2 Colonies/plant | protection against infection ([9]; 400 ul of 0.25 mM applied to a single leaf): complete protection | disease symptoms / protection against bean rust ([9]; DFMO at 0.5 mM or higher, pre- and postinoculation, 400 ul per leaf): No disease symptoms could be detected; also recorded: complete protection | germination or pathogenicity of uredospores collected from treated plants ([9]; plants treated with low concentrations): no decrease in germination or pathogenicity | delay of uredial appearance ([9]; postinoculation exposure, lower concentrations, dose-dependent): 2 to 6 days | Lesions per cm^2 [9, 14]: 40 ± 5 per cm^2 | Lesions per leaf [9, 14]: 1888 ± 249 per leaf | Lesions per cm^2 [9, 15]: 28 ± 2 per cm^2 | Lesions per leaf [9, 15]: 1526 ± 160 per leaf | Lesions per cm^2 [9, 16]: 17 ± 2 per cm^2 | Lesions per leaf [9, 16]: 1026 ± 131 per leaf | Lesions per cm^2 [9, 17]: 12 ± 1 per cm^2 | Lesions per leaf [9, 17]: 669 ± 96 per leaf | Lesions per cm^2 [9, 18]: 5 ± 1 per cm^2 | Lesions per leaf [9, 18]: 221 ± 39 per leaf | Lesions per cm^2 [9, 19]: 2 ± 1 per cm^2 | Lesions per leaf [9, 19]: 73 ± 4 per leaf | Lesions per cm^2 [9, 20]: 0 per cm^2 | Lesions per leaf [9, 20]: 0 per leaf | Lesions per cm^2 [9, 21]: 0 per cm^2 | Lesions per leaf [9, 21]: 0 per leaf | Lesions per cm^2 [9, 22]: 0 per cm^2 | Lesions per leaf [9, 22]: 0 per leaf | Lesions per cm^2 [9, 23]: 47 ± 6 per cm^2 | Lesions per leaf [9, 23]: 2677 ± 397 per leaf | Lesions per cm^2 [9, 24]: 34 ± 1 per cm^2 | Lesions per leaf [9, 24]: 2071 ± 103 per leaf | Lesions per cm^2 [9, 25]: 29 ± 4 per cm^2 | Lesions per leaf [9, 25]: 1712 ± 375 per leaf | Lesions per cm^2 [9, 26]: 19 ± 2 per cm^2 | Lesions per leaf [9, 26]: 1177 ± 159 per leaf | Lesions per cm^2 [9, 27]: 14 ± 2 per cm^2 | Lesions per leaf [9, 27]: 659 ± 104 per leaf | Lesions per cm^2 [9, 28]: 2 ± 1 per cm^2 | Lesions per leaf [9, 28]: 85 ± 20 per leaf | Lesions per cm^2 [9, 29]: 0 per cm^2 | Lesions per leaf [9, 29]: 0 per leaf | Lesions per cm^2 [9, 30]: 0 per cm^2 | Lesions per leaf [9, 30]: 0 per leaf | Lesions per cm^2 [9, 31]: 0 per cm^2 | Lesions per leaf [9, 31]: 0 per leaf | Percent control [10]: 48.6% | Put and Spd titers ([11]; highest concentration of DFMO): increased | PA levels in treated leaves ([11]; sprays 0.01, 0.1 and 1.0 mM, 1, 3 and 8 days later): no significant reductions | Lesions per plant ([12]; 1.0 mM): 69 per plant | Percent control ([12]; 1.0 mM): 14% | Lesions per plant ([12]; 5.0 mM): 69 per plant | Percent control ([12]; 5.0 mM): 14% | Lesions per plant ([12]; 10.0 mM): 70 per plant | Percent control ([12]; 10.0 mM): 14% | Percent control ([13]; 0.01 mM): 43.5% | Percent control ([13]; 0.025 mM): 38.4% | Percent control ([13]; 0.065 mM): 37.4% | Percent control ([13]; 0.10 mM): 63.1% | Percent control ([13]; 0.13 mM): 67.7% | Percent control ([13]; 0.16 mM): 88.7% and ~90% | Percent control ([13]; 0.20 mM): 88.4% | Percent control ([13]; 1.00 mM): 94.9% | EC50 ([13]; Puccinia sorghi, read-out: concentration providing 50% protection against corn rust): < 100 µM
